Structures can show the parent of a compound that is named as a salt. Where two headings read alike, the source gives them in different places.
What was measured:
[1] = Hygroscopicity (DVS tests); format: physicochemical; conditions: for Hygroscopicity (%): water uptake at 25° C./80% RH
[2] = Solid-state stability under 40° C./75% RH for one week; format: physicochemical
[3] = Kinetic solubility in pH 2, 5, and 7 buffers; format: physicochemical; conditions: for Kinetic Solubility: in pH 2, 5 and 7 buffers, compared with freebase Form A
ALK5 [4] = biological target: T1, ALK5 (Homo sapiens, UniProt P36897); experiment: ALK5 nanobret assay in HEK293 cells transfected with ALK5-Nanoluc fusion; format: binding; conditions: luciferase tagged ALK5, fluorescent tracer competition (BRET), structure (I) tested as HCl salt
T1 sequence (P36897 34-503): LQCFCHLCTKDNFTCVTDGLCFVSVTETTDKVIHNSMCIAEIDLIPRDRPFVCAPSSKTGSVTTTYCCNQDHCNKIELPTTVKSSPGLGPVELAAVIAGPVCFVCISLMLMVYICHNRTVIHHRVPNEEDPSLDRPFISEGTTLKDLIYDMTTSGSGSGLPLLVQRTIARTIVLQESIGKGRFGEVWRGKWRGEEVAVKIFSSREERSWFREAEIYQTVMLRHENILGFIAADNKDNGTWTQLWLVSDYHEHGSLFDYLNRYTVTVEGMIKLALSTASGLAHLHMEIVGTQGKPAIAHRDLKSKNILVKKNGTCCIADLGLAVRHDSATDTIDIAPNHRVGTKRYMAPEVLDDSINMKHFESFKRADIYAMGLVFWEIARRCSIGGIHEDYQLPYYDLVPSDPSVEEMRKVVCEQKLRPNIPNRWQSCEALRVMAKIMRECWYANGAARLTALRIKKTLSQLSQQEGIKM
Method: An HCl salt of the compound of structure (I) was tested in an ALK5 nanobret assay. HEK293 cells were transfected with the ALK5-Nanoluc fusion (Promega) vector, which encodes for a luciferase tagged form of ALK5. For testing of the compound of structure (I), transfected cells were pretreated with drug. Subsequently, a fluorescent tracer was added and the fluorescence signal was measured.
In this assay, luminescence develops via the nanoluciferase tagged ALK5, which can transfer signal via bioluminescence energy transfer (BRET) to the tracer, yielding a fluorescent signal.

ALK5 [5] = biological target: T1, ALK5; experiment: Rhabdomyosarcoma (RD) cell SMAD reporter (RDSR) assay; format: cell-based; parameters: The RD cell line was transfected with the pGL4.48(luc2P/SBE/Hygro) vector; endogenous in cells; host or cells: RD rhabdomyosarcoma cells stably transfected with the SBE-luciferase reporter only; conditions: RD cells transfected with pGL4.48(luc2P/SBE/Hygro) vector, pretreated with drug, induced with 50 pg/mL TGFβ1 for up to 24 hours; structure (I) tested as HCl salt

SMILES | form change after DVS tests [1] | Hygroscopicity (%) [1] | Solid-state Stability [2] | Hygroscopicity ([1]; class based on water uptake at 25° C./80% RH) | Kinetic Solubility [3] | Kinetic Solubility ([3]; listed as HCl Form A) | disproportionation ([3]; pH 7 buffer) | Solid-state Stability ([2]; listed as HCl salt Form A) | IC50 (ALK5 [4]) [nM] | IC50 (ALK5 [5]) [nM]
COc1cc(Nc2nccc(Nc3cccnc3-c3ccccn3)n2)ccc1N1CCN(C)CC1 [Freebase Form A] | no form change | (0.60) % | Good physicochemical properties under |  |  |  |  |  |  | 
COc1cc(Nc2nccc(Nc3cccnc3-c3ccccn3)n2)ccc1N1CCN(C)CC1 [HCl Salt Form A] | no form change | (0.86) % | Good physicochemical properties under | Slightly hygroscopic | increased solubility | HCl Form A showed increased solubility | disproportionation was observed | good physicochemical properties |  | 
COc1cc(Nc2nccc(Nc3cccnc3-c3ccccn3)n2)ccc1N1CCN(C)CC1 [compound of structure (I)] |  |  |  |  |  |  |  |  | 2300 | 309

— patent publication US20240075033A1, “ALK5 INHIBITORS FOR TREATING MYELODYSPLASTIC SYNDROME” (Sumitomo Pharma Oncology, Inc., priority 2019, published 2024)
